{"source": "patent US8242174B2", "about": "(priority 2007, dated 2012)", "note": "Counter-ions that a name gives are not always drawn.", "data": [{"target": "Lethal factor protease (Bacillus anthracis, UniProt P15917)", "sequence (P15917 34-809 limits assumed)": "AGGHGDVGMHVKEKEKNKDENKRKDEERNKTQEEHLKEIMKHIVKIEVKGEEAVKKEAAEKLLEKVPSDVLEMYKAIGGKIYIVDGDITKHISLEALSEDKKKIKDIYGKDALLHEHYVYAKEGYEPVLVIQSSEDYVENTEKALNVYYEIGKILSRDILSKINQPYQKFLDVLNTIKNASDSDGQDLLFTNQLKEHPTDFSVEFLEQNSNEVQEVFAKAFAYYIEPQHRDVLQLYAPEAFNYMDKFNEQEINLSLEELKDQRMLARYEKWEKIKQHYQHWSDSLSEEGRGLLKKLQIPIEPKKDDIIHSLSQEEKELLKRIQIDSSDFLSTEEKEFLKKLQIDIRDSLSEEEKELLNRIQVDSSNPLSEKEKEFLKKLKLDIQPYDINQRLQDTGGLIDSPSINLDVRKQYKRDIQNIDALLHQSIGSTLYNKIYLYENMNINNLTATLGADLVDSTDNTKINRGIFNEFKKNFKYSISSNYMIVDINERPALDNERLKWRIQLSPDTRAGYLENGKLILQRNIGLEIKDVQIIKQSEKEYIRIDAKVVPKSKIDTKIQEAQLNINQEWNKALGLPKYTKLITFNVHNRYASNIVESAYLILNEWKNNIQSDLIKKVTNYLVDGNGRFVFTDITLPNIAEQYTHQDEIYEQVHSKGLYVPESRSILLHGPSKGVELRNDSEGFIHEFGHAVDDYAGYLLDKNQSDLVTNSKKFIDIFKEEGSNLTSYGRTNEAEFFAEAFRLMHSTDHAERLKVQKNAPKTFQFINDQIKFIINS", "assay": "biochemical", "units": {"Ki": "µM"}, "values": [{"smiles": "Cc1cc(N[C@H](CCCCNCc2cccc(-c3ccccc3)c2)C(=O)NO)ccc1F", "note": "[Compound 168165, (R)-6-[(Biphenyl-3-ylmethyl)-amino]-2-(4-fluoro-3-methyl-phenylamino)-hexanoic acid hydroxyamide]", "Ki": 0.12}, {"smiles": "CCCCC(Nc1cccc(CC)c1)C(=O)NO", "note": "(stereo not shown) [Compound 167201, 2-(3-Ethyl-phenylamino)-hexanoic acid hydroxyamide]", "Ki": 89.8}, {"smiles": "Cc1cc(N[C@H](CCCCNCc2cc(C)c(F)c(C)c2)C(=O)NO)ccc1F", "note": "[Compound 167968, (R)-6-(4-Fluoro-3,5-dimethyl-benzylamino)-2-(4-fluoro-3-methyl-phenylamino)-hexanoic acid hydroxyamide]", "Ki": 0.1}, {"smiles": "CCCCC(Nc1cccc(Cl)c1)C(=O)NO", "note": "(stereo not shown) [Compound 167257, 2-(3-Chloro-phenylamino)-hexanoic acid hydroxyamide]", "Ki": 61.5}, {"smiles": "CCCCC(Nc1ccccc1F)C(=O)NO", "note": "(stereo not shown) [Compound 167291, 2-(2-Fluoro-phenylamino)-hexanoic acid hydroxyamide]", "Ki": "> 300"}, {"smiles": "Cc1cc(N[C@H](C)C(=O)NO)cc(C)c1F", "note": "[Compound 167497, (R)-2-(4-Fluoro-3,5-dimethyl-phenylamino)-N-hydroxy-propionamide]", "Ki": 0.47}, {"smiles": "Cc1cc(N[C@H](CCCCNCc2ccccc2)C(=O)NO)ccc1F", "note": "[Compound 167980, (R)-6-Benzylamino-2-(4-fluoro-3-methyl-phenylamino)-hexanoic acid hydroxyamide]", "Ki": 0.15}, {"smiles": "CCCCC(Nc1ccc(Cl)cc1)C(=O)NO", "note": "(stereo not shown) [Compound 167256, 2-(4-Chloro-phenylamino)-hexanoic acid hydroxyamide]", "Ki": 187}, {"smiles": "Cc1cc(N[C@H](CCCCNS(=O)(=O)c2ccc(N)cc2)C(=O)NO)cc(C)c1F", "note": "[Compound 167656, (R)-6-(4-Amino-benzenesulfonylamino)-2-(4-fluoro-3,5-dimethyl-phenylamino)-hexanoic acid hydroxyamide]", "Ki": 0.61}, {"smiles": "Cc1cc(NCC(=O)NO)cc(C)c1F", "note": "[Compound 167452, 2-(4-Fluoro-3,5-dimethyl-phenylamino)-N-hydroxy-acetamide]", "Ki": 4}, {"smiles": "CCCC(CCC)CNCCCC[C@@H](Nc1ccc(F)c(C)c1)C(=O)NO", "note": "[Compound 168167, (R)-2-(4-Fluoro-3-methyl-phenylamino)-6-(2-propyl-pentylamino)-hexanoic acid hydroxyamide]", "Ki": 0.25}, {"smiles": "CCCCC(Nc1cc(Cl)cc(Cl)c1)C(=O)NO", "note": "(stereo not shown) [Compound 167718, 2-(3,5-Dichloro-phenylamino)-hexanoic acid hydroxyamide]", "Ki": 12.2}, {"smiles": "Cc1cc(N[C@H](CCCCNS(=O)(=O)c2ccc(C(=O)O)cc2)C(=O)NO)cc(C)c1F", "note": "[Compound 167613, (R)-4-[5-(4-Fluoro-3,5-dimethyl-phenylamino)-5-hydroxycarbamoyl-pentylsulfamoyl]-benzoic acid]", "Ki": 3.66}, {"smiles": "CCCCC(Nc1cc(C)cc(Br)c1)C(=O)NO", "note": "(stereo not shown) [Compound 167844, 2-(3-Bromo-5-methyl-phenylamino)-hexanoic acid hydroxyamide]", "Ki": 3.5}, {"smiles": "Cc1cc(NC(Cc2ccc(OC(F)(F)F)cc2)C(=O)NO)ccc1F", "note": "(stereo not shown) [Compound 167233, 2-(4-Fluoro-3-methyl-phenylamino)-N-hydroxy-3-(4-trifluoromethoxy-phenyl)-propionamide]", "Ki": 102}, {"smiles": "Cc1cc(N[C@H](CCCCN(Cc2ccc(F)cc2)Cc2ccc(F)cc2)C(=O)NO)cc(C)c1F", "note": "[Compound 168047, (R)-6-[Bis-(4-fluoro-benzyl)-amino]-2-(4-fluoro-3,5-dimethyl-phenylamino)-hexanoic acid hydroxyamide]", "Ki": 0.79}, {"smiles": "Cc1cc(N[C@@H](C(=O)NO)C2CCCCC2)cc(C)c1F", "note": "[Compound 167424, (R)-2-Cyclohexyl-2-(4-fluoro-3,5-dimethyl-phenylamino)-N-hydroxy-acetamide]", "Ki": 0.79}, {"smiles": "Cc1cc(N[C@H](CCCCNCC2CCCCC2)C(=O)NO)ccc1F", "note": "[Compound 168146, (R)-6-(Cyclohexylmethyl-amino)-2-(4-fluoro-3-methyl-phenylamino)-hexanoic acid hydroxyamide]", "Ki": 0.25}, {"smiles": "Cc1cc(N[C@H](CCCCNS(=O)(=O)c2cc(C)c(F)c(C)c2)C(=O)NO)cc(C)c1F", "note": "[Compound 167530, (R)-6-(4-Fluoro-3,5-dimethyl-benzenesulfonylamino)-2-(4-fluoro-3,5-dimethyl-phenylamino)-hexanoic acid hydroxyamide]", "Ki": 0.37}, {"smiles": "Cc1cc(N[C@H](CCCCNCc2ccc3c(c2)OCO3)C(=O)NO)ccc1F", "note": "[Compound 168145, (R)-6-[(Benzo[1,3]dioxol-5-ylmethyl)-amino]-2-(4-fluoro-3-methyl-phenylamino)-hexanoic acid hydroxyamide]", "Ki": 0.17}, {"smiles": "Cc1cc(N[C@H](CCCCn2c(C)ccc2C)C(=O)NO)cc(C)c1F", "note": "[Compound 167605, (R)-6-(2,5-Dimethyl-pyrrol-1-yl)-2-(4-fluoro-3,5-dimethyl-phenylamino)-hexanoic acid hydroxyamide]", "Ki": 2}, {"smiles": "Cc1cc(CNCCCC[C@@H](Nc2ccc(F)c(C)c2)C(=O)NO)ccc1F", "note": "[Compound 167946, (R)-6-(4-Fluoro-3-methyl-benzylamino)-2-(4-fluoro-3-methyl-phenylamino)-hexanoic acid hydroxyamide]", "Ki": 0.06}, {"smiles": "Cc1cc(N[C@H](CCCCN(CC2CCCCC2)CC2CCCCC2)C(=O)NO)ccc1F", "note": "[Compound 167991, (R)-6-(Bis-cyclohexylmethyl-amino)-2-(4-fluoro-3-methyl-phenylamino)-hexanoic acid hydroxyamide]", "Ki": 16.6}, {"smiles": "CCCCC(Nc1cccc(-c2ccccc2)c1)C(=O)NO", "note": "(stereo not shown) [Compound 167202, 2-(Biphenyl-3-ylamino)-hexanoic acid hydroxyamide]", "Ki": 236}, {"smiles": "CCCCC(Nc1cc(C)cc(Cl)c1)C(=O)NO", "note": "(stereo not shown) [Compound 167645, 2-(3-Chloro-5-methyl-phenylamino)-hexanoic acid hydroxyamide]", "Ki": 2.2}, {"smiles": "Cc1cc(N[C@H](CCCCNCc2cc(C)c(OCc3ccccc3)c(C)c2)C(=O)NO)ccc1F", "note": "[Compound 167969, (R)-6-(4-Benzyloxy-3,5-dimethyl-benzylamino)-2-(4-fluoro-3-methyl-phenylamino)-hexanoic acid hydroxyamide]", "Ki": 0.27}, {"smiles": "Cc1cc(CN(CCCC[C@@H](Nc2cc(C)c(F)c(C)c2)C(=O)NO)Cc2ccc(F)c(C)c2)ccc1F", "note": "[Compound 167933, (R)-6-[Bis-(4-fluoro-3-methyl-benzyl)-amino]-2-(4-fluoro-3,5-dimethyl-phenylamino)-hexanoic acid hydroxyamide]", "Ki": 1.9}, {"smiles": "Cc1cc(NC(=O)NCCCC[C@@H](Nc2cc(C)c(F)c(C)c2)C(=O)NO)ccc1F", "note": "[Compound 167614, (R)-2-(4-Fluoro-3,5-dimethyl-phenylamino)-6-[3-(4-fluoro-3-methyl-phenyl)-ureido]-hexanoic acid hydroxyamide]", "Ki": 0.28}, {"smiles": "Cc1cc(N[C@H](CCCCNCc2ccc(F)nc2)C(=O)NO)ccc1F", "note": "[Compound 167978, (R)-2-(4-Fluoro-3-methyl-phenylamino)-6-[(6-fluoro-pyridin-3-ylmethyl)-amino]-hexanoic acid hydroxyamide]", "Ki": 0.26}, {"smiles": "Cc1cc(N[C@H](CCCCNS(=O)(=O)c2cccc([N+](=O)[O-])c2)C(=O)NO)cc(C)c1F", "note": "[Compound 167622, (R)-2-(4-Fluoro-3,5-dimethyl-phenylamino)-6-(3-nitro-benzenesulfonylamino)-hexanoic acid hydroxyamide]", "Ki": 0.15}, {"smiles": "CCCCC(Nc1cccc(C)c1)C(=O)NO", "note": "(stereo not shown) [Compound 167170, 2-m-Tolylamino-hexanoic acid hydroxyamide]", "Ki": 34.1}, {"smiles": "Cc1cc(N[C@H](CCCCNCCc2ccccc2)C(=O)NO)ccc1F", "note": "[Compound 167979, (R)-2-(4-Fluoro-3-methyl-phenylamino)-6-phenethylamino-hexanoic acid hydroxyamide]", "Ki": 0.21}, {"smiles": "CCCCC(Nc1ccc(F)cc1)C(=O)NO", "note": "(stereo not shown) [Compound 167211, 2-(4-Fluoro-phenylamino)-hexanoic acid hydroxyamide]", "Ki": 81}, {"smiles": "CCCCC(Nc1cc(C)c(F)c(C)c1)C(=O)NO", "note": "(stereo not shown) [Compound 167454, 2-(4-Fluoro-3,5-dimethyl-phenylamino)-hexanoic acid hydroxyamide]", "Ki": 0.8}, {"smiles": "Cc1cc(N[C@H](C(=O)NO)C(C)C)ccc1F", "note": "[Compound 167268, (S)-2-(4-Fluoro-3-methyl-phenylamino)-N-hydroxy-3-methyl-butyramide hydrochloride]", "Ki": "> 300"}, {"smiles": "Cc1cc(CNCCCC[C@@H](Nc2cc(C)c(F)c(C)c2)C(=O)NO)cc(C)c1F", "note": "[Compound 167759, 6-(4-Fluoro-3,5-dimethyl-benzylamino)-2-(4-fluoro-3,5-dimethyl-phenylamino)-hexanoic acid hydroxyamide]", "Ki": 0.07}, {"smiles": "Cc1cc(N[C@H](CCCCNC(=O)CCC(=O)O)C(=O)NO)cc(C)c1F", "note": "[Compound 167620, (R)—N-[5-(4-Fluoro-3,5-dimethyl-phenylamino)-5-hydroxycarbamoyl-pentyl]-succinamic acid]", "Ki": 3.5}, {"smiles": "Cc1cc(N[C@H](CCCCNC(=O)Cc2ccc(-n3c(C)ccc3C)cc2)C(=O)NO)cc(C)c1F", "note": "[Compound 167592, (R)-6-{2-[4-(2,5-Dimethyl-pyrrol-1-yl)-phenyl]-acetylamino}-2-(4-fluoro-3,5-dimethyl-phenylamino)-hexanoic acid hydroxyamide]", "Ki": 1.44}, {"smiles": "Cc1cc(N[C@H](CCCCN(Cc2ccccc2)Cc2ccccc2)C(=O)NO)cc(C)c1F", "note": "[Compound 167738, (R)-6-Dibenzylamino-2-(4-fluoro-3,5-dimethyl-phenylamino)-hexanoic acid hydroxyamide]", "Ki": 0.43}, {"smiles": "Cc1cc(N[C@H](COC(C)(C)C)C(=O)NO)cc(C)c1F", "note": "[Compound 167484, (R)-3-tert-Butoxy-2-(4-fluoro-3,5-dimethyl-phenylamino)-N-hydroxy-propionamide]", "Ki": 0.45}]}]}
